Results published in US10538555B2, “Macrocyclic inhibitors of the PD-1/PD-L1 and CD80(B7-1)/PD-L1 protein/protein interactions” (BRISTOL-MYERS SQUIBB COMPANY, priority 2014, dated 2020).
Where a SMILES comes first, the peptide text is derived from it. Bridges are numbered along the chain shown (N, C = ends). [ ]: non-standard residue; d: D form. ξ: configuration not given here. Hyp = O=C(O)[C@@H]1C[C@@H](O)CN1; NMeF = CN[C@@H](Cc1ccccc1)C(=O)O; NMeNle = CCCC[C@H](NC)C(=O)O; NMeM = CN[C@@H](CCSC)C(=O)O; NMeA = CN[C@@H](C)C(=O)O; Dab = NCC[C@H](N)C(=O)O; Dap = NC[C@H](N)C(=O)O; ξC = NC(CS)C(=O)O

target: T1, Human PD-L1/PD-1 (Homo sapiens, UniProt Q9NZQ7); test: HTRF Human PD-L1/PD-1 binding assay (PD-1-Ig/PD-L1-His); details: PD-L1-His 10 nM, PD-1-Ig 20 nM; class symbol; read-out: HTRF Human PD-L1/PD-1 Binding Assay IC50 Range
T1 construct: TVMV protease cleavage site (C); made in house; host or cells: HEK293T cells
Procedure, shortened: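 Compound preincubated 15 min with PD-L1-His (10 nM final), then PD-1-Ig (20 nM final) added for 15 min in dPBS with 0.1% BSA and 0.05% Tween-20. Detection by Eu-cryptate anti-Ig (1 nM) and APC anti-His (20 nM) after 30 min; 665/620 nm HTRF ratio. Proteins expressed in HEK293T.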

T1 sequence (Q9NZQ7 with tags, fused parts or gaps): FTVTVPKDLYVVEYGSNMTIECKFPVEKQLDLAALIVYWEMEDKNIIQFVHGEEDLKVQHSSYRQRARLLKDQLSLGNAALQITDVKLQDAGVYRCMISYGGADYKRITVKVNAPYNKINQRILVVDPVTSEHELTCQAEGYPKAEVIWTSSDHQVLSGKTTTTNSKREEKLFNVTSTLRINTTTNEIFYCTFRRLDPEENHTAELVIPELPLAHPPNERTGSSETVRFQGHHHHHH

Q: `CCCC[C@H]1C(=O)N(C)[C@@H](CCCC)C(=O)N[C@@H](CCC(=O)O)C(=O)NC(C(=O)NCC(N)=O)CSCC(=O)N[C@@H](Cc2ccc(O)cc2)C(=O)N(C)[C@@H](C)C(=O)N[C@@H](CC(N)=O)C(=O)N2CCC[C@H]2C(=O)N[C@@H](CC(N)=O)C(=O)N[C@@H](CC(C)C)C(=O)N2CCC[C@H]2C(=O)N[C@@H](Cc2c[nH]c3ccccc23)C(=O)N[C@@H](CO)C(=O)N[C@@H](Cc2c[nH]c3ccccc23)C(=O)N1C` (stereo partly drawn) [Example 9168] ({CH2CO}-Y[NMeA]NPNLPWSW[NMeNle][NMeNle]E[ξC]G-NH2; thioether N-14) was tested. Which IC50 did it give?
A: 1 to 9.9 nM

Q: How did the IC50 turn out when `CCCC[C@H]1C(=O)N(C)[C@@H](CCCC)C(=O)N[C@@H](CCC(=O)O)C(=O)NC(C(=O)NCC(N)=O)CSCC(=O)N[C@@H](Cc2ccc(O)cc2)C(=O)N(C)[C@@H](C)C(=O)N[C@@H](CC(N)=O)C(=O)N2CCC[C@H]2C(=O)N[C@@H](CC(N)=O)C(=O)N[C@@H](CC(C)C)C(=O)N2C[C@H](O)C[C@H]2C(=O)N[C@@H](Cc2c[nH]c3ccccc23)C(=O)N[C@@H](CO)C(=O)N[C@@H](Cc2c[nH]c3ccccc23)C(=O)N1C` (stereo partly drawn) [Example 9169] ({CH2CO}-Y[NMeA]NPNL[Hyp]WSW[NMeNle][NMeNle]E[ξC]G-NH2; thioether N-14) was run?
A: 1 to 9.9 nM

Q: With `CCCC[C@H]1C(=O)N(C)[C@@H](CCCC)C(=O)N[C@@H](CCC(=O)O)C(=O)NC(C(=O)NCC(N)=O)CSCC(=O)N[C@@H](Cc2ccc(O)cc2)C(=O)N(C)[C@@H](C)C(=O)N[C@@H](CC(N)=O)C(=O)N2CCC[C@H]2C(=O)N[C@@H](Cc2c[nH]cn2)C(=O)N[C@@H](CC(N)=O)C(=O)N2CCC[C@H]2C(=O)N[C@@H](Cc2c[nH]c3ccccc23)C(=O)N[C@@H](CO)C(=O)N[C@@H](Cc2c[nH]c3ccccc23)C(=O)N1C` (stereo partly drawn) [Example 9170] ({CH2CO}-Y[NMeA]NPHNPWSW[NMeNle][NMeNle]E[ξC]G-NH2; thioether N-14) as the compound, how does the IC50 read?
A: 10 to 99.9 nM

Q: `CCCC[C@H]1C(=O)N(C)[C@@H](CCCC)C(=O)N[C@@H](CCC(=O)O)C(=O)NC(C(=O)NCC(N)=O)CSCC(=O)N[C@@H](Cc2ccc(O)cc2)C(=O)N(C)[C@@H](C)C(=O)N[C@@H](CC(N)=O)C(=O)N2CCC[C@H]2C(=O)N[C@@H](Cc2c[nH]cn2)C(=O)N[C@@H](CC(N)=O)C(=O)N2C[C@H](O)C[C@H]2C(=O)N[C@@H](Cc2c[nH]c3ccccc23)C(=O)N[C@@H](CO)C(=O)N[C@@H](Cc2c[nH]c3ccccc23)C(=O)N1C` (stereo partly drawn) [Example 9171] ({CH2CO}-Y[NMeA]NPHN[Hyp]WSW[NMeNle][NMeNle]E[ξC]G-NH2; thioether N-14) was tested. Which IC50 did it give?
A: 1 to 9.9 nM

Q: How did the IC50 turn out when `CCCC[C@H]1C(=O)N(C)[C@@H](CCCC)C(=O)N[C@@H](CCC(=O)O)C(=O)NC(C(=O)NCC(N)=O)CSCC(=O)N[C@@H](Cc2ccc(O)cc2)C(=O)N(C)[C@@H](C)C(=O)N[C@@H](CC(N)=O)C(=O)N2CCC[C@H]2C(=O)N[C@@H](CC(N)=O)C(=O)N[C@@H](CC(C)C)C(=O)N2CCC[C@H]2C(=O)N[C@@H](Cc2c[nH]c3ccccc23)C(=O)N[C@@H](CC(=O)O)C(=O)N[C@@H](Cc2c[nH]c3ccccc23)C(=O)N1C` (stereo partly drawn) [Example 9172] ({CH2CO}-Y[NMeA]NPNLPWDW[NMeNle][NMeNle]E[ξC]G-NH2; thioether N-14) was run?
A: 100 to 990 nM

Q: How did the IC50 turn out when `CCCC[C@H]1C(=O)N(C)[C@@H](CCCC)C(=O)N[C@@H](CCC(=O)O)C(=O)NC(C(=O)NCC(N)=O)CSCC(=O)N[C@@H](Cc2ccc(O)cc2)C(=O)N(C)[C@@H](C)C(=O)N[C@@H](CC(N)=O)C(=O)N2CCC[C@H]2C(=O)N[C@@H](CC(N)=O)C(=O)N[C@@H](CC(C)C)C(=O)N2C[C@H](O)C[C@H]2C(=O)N[C@@H](Cc2c[nH]c3ccccc23)C(=O)N[C@@H](CC(=O)O)C(=O)N[C@@H](Cc2c[nH]c3ccccc23)C(=O)N1C` (stereo partly drawn) [Example 9173] ({CH2CO}-Y[NMeA]NPNL[Hyp]WDW[NMeNle][NMeNle]E[ξC]G-NH2; thioether N-14) was run?
A: 100 to 990 nM

Q: With `CCCC[C@H]1C(=O)N(C)[C@@H](CCCC)C(=O)N[C@@H](CCC(=O)O)C(=O)NC(C(=O)NCC(N)=O)CSCC(=O)N[C@@H](Cc2ccc(O)cc2)C(=O)N(C)[C@@H](C)C(=O)N[C@@H](CC(N)=O)C(=O)N2CCC[C@H]2C(=O)N[C@@H](Cc2c[nH]cn2)C(=O)N[C@@H](CC(N)=O)C(=O)N2CCC[C@H]2C(=O)N[C@@H](Cc2c[nH]c3ccccc23)C(=O)N[C@@H](CC(=O)O)C(=O)N[C@@H](Cc2c[nH]c3ccccc23)C(=O)N1C` (stereo partly drawn) [Example 9174] ({CH2CO}-Y[NMeA]NPHNPWDW[NMeNle][NMeNle]E[ξC]G-NH2; thioether N-14) as the compound, how does the IC50 read?
A: 100 to 990 nM

Q: With `CCCC[C@H]1C(=O)N(C)[C@@H](CCCC)C(=O)N[C@@H](CCC(=O)O)C(=O)NC(C(=O)NCC(N)=O)CSCC(=O)N[C@@H](Cc2ccc(O)cc2)C(=O)N(C)[C@@H](C)C(=O)N[C@@H](CC(N)=O)C(=O)N2CCC[C@H]2C(=O)N[C@@H](CC(N)=O)C(=O)N[C@@H](CC(C)C)C(=O)N2CCC[C@H]2C(=O)N[C@@H](Cc2c[nH]c3ccccc23)C(=O)N[C@@H](CN)C(=O)N[C@@H](Cc2c[nH]c3ccccc23)C(=O)N1C` (stereo partly drawn) [Example 9176] ({CH2CO}-Y[NMeA]NPNLPW[Dap]W[NMeNle][NMeNle]E[ξC]G-NH2; thioether N-14) as the compound, how does the IC50 read?
A: 100 to 990 nM

Q: For `CCCC[C@H]1C(=O)N(C)[C@@H](CCCC)C(=O)N[C@@H](CCC(=O)O)C(=O)NC(C(=O)NCC(N)=O)CSCC(=O)N[C@@H](Cc2ccc(O)cc2)C(=O)N(C)[C@@H](C)C(=O)N[C@@H](CC(N)=O)C(=O)N2CCC[C@H]2C(=O)N[C@@H](CC(N)=O)C(=O)N[C@@H](CC(C)C)C(=O)N2C[C@H](O)C[C@H]2C(=O)N[C@@H](Cc2c[nH]c3ccccc23)C(=O)N[C@@H](CN)C(=O)N[C@@H](Cc2c[nH]c3ccccc23)C(=O)N1C` (stereo partly drawn) [Example 9177] ({CH2CO}-Y[NMeA]NPNL[Hyp]W[Dap]W[NMeNle][NMeNle]E[ξC]G-NH2; thioether N-14), which IC50 is on record?
A: 100 to 990 nM

Q: Which IC50 does the source give for `CCCC[C@H]1C(=O)N(C)[C@@H](CCCC)C(=O)N[C@@H](CCC(=O)O)C(=O)NC(C(=O)NCC(N)=O)CSCC(=O)N[C@@H](Cc2ccc(O)cc2)C(=O)N(C)[C@@H](C)C(=O)N[C@@H](CC(N)=O)C(=O)N2CCC[C@H]2C(=O)N[C@@H](Cc2c[nH]cn2)C(=O)N[C@@H](CC(N)=O)C(=O)N2CCC[C@H]2C(=O)N[C@@H](Cc2c[nH]c3ccccc23)C(=O)N[C@@H](CN)C(=O)N[C@@H](Cc2c[nH]c3ccccc23)C(=O)N1C` (stereo partly drawn) [Example 9178] ({CH2CO}-Y[NMeA]NPHNPW[Dap]W[NMeNle][NMeNle]E[ξC]G-NH2; thioether N-14) here?
A: 100 to 990 nM

Q: Which IC50 does the source give for `CCCC[C@H]1C(=O)N(C)[C@@H](CCCC)C(=O)N[C@@H](CCC(=O)O)C(=O)NC(C(=O)NCC(N)=O)CSCC(=O)N[C@@H](Cc2ccc(O)cc2)C(=O)N(C)[C@@H](C)C(=O)N[C@@H](CC(N)=O)C(=O)N2CCC[C@H]2C(=O)N[C@@H](Cc2c[nH]cn2)C(=O)N[C@@H](CC(N)=O)C(=O)N2C[C@H](O)C[C@H]2C(=O)N[C@@H](Cc2c[nH]c3ccccc23)C(=O)N[C@@H](CN)C(=O)N[C@@H](Cc2c[nH]c3ccccc23)C(=O)N1C` (stereo partly drawn) [Example 9179] ({CH2CO}-Y[NMeA]NPHN[Hyp]W[Dap]W[NMeNle][NMeNle]E[ξC]G-NH2; thioether N-14) here?
A: 100 to 990 nM

Q: `CCCC[C@H]1C(=O)N(C)[C@@H](CCCC)C(=O)N[C@@H](CCC(=O)O)C(=O)NC(C(=O)NCC(N)=O)CSCC(=O)N[C@@H](Cc2ccc(O)cc2)C(=O)N(C)[C@@H](C)C(=O)N[C@@H](CC(N)=O)C(=O)N2CCC[C@H]2C(=O)N[C@@H](CC(N)=O)C(=O)N[C@@H](CC(C)C)C(=O)N2CCC[C@H]2C(=O)N[C@@H](Cc2c[nH]c3ccccc23)C(=O)N[C@@H](CCN)C(=O)N[C@@H](Cc2c[nH]c3ccccc23)C(=O)N1C` (stereo partly drawn) [Example 9180] ({CH2CO}-Y[NMeA]NPNLPW[Dab]W[NMeNle][NMeNle]E[ξC]G-NH2; thioether N-14) was tested. Which IC50 did it give?
A: 1 to 9.9 nM

Q: `CCCC[C@H]1C(=O)N(C)[C@@H](CCCC)C(=O)N[C@@H](CCC(=O)O)C(=O)NC(C(=O)NCC(N)=O)CSCC(=O)N[C@@H](Cc2ccc(O)cc2)C(=O)N(C)[C@@H](C)C(=O)N[C@@H](CC(N)=O)C(=O)N2CCC[C@H]2C(=O)N[C@@H](CC(N)=O)C(=O)N[C@@H](CC(C)C)C(=O)N2C[C@H](O)C[C@H]2C(=O)N[C@@H](Cc2c[nH]c3ccccc23)C(=O)N[C@@H](CCN)C(=O)N[C@@H](Cc2c[nH]c3ccccc23)C(=O)N1C` (stereo partly drawn) [Example 9181] ({CH2CO}-Y[NMeA]NPNL[Hyp]W[Dab]W[NMeNle][NMeNle]E[ξC]G-NH2; thioether N-14) was tested. Which IC50 did it give?
A: 1 to 9.9 nM

same assay, conditions: PD-L1-His 10 nM, PD-1-Ig 20 nM; read-out: HTRF Human PD-L1/PD-1 Binding Assay IC50

Q: `CSCC[C@H]1C(=O)N2C[C@H](O)C[C@H]2C(=O)N[C@@H](CC(N)=O)C(=O)N[C@@H](C(C)C)C(=O)N(C)[C@@H](Cc2ccccc2)C(=O)N[C@@H](Cc2ccc(O)cc2)C(=O)N2C[C@H](O)C[C@H]2C(=O)N[C@@H](Cc2c[nH]c3ccccc23)C(=O)N[C@@H](Cc2ccc(O)cc2)C(=O)N[C@@H](CC(C)C)C(=O)N[C@H](C(=O)NCC(N)=O)CSCC(=O)N[C@@H](Cc2ccccc2)C(=O)N(C)[C@@H](Cc2ccccc2)C(=O)N1C` [Example 9167] ({CH2CO}-F[NMeF][NMeM][Hyp]NV[NMeF]Y[Hyp]WYLCG-NH2; thioether N-13) was tested. Which IC50 did it give?
A: 1000 nM

Q: How did the IC50 turn out when `CCCC[C@H]1C(=O)N(C)[C@@H](CCCC)C(=O)N[C@@H](CCC(=O)O)C(=O)NC(C(=O)NCC(N)=O)CSCC(=O)N[C@@H](Cc2ccc(O)cc2)C(=O)N(C)[C@@H](C)C(=O)N[C@@H](CC(N)=O)C(=O)N2CCC[C@H]2C(=O)N[C@@H](Cc2c[nH]cn2)C(=O)N[C@@H](CC(N)=O)C(=O)N2C[C@H](O)C[C@H]2C(=O)N[C@@H](Cc2c[nH]c3ccccc23)C(=O)N[C@@H](CC(=O)O)C(=O)N[C@@H](Cc2c[nH]c3ccccc23)C(=O)N1C` (stereo partly drawn) [Example 9175] ({CH2CO}-Y[NMeA]NPHN[Hyp]WDW[NMeNle][NMeNle]E[ξC]G-NH2; thioether N-14) was run?
A: 364 nM
